In patent US20250011881A1, “MYC-HSF1 DUAL AMPLIFICATION AS A BIOMARKER FOR CANCER TREATMENT” (The Trustees of Indiana University, priority 2023, published 2025):
Several values for one entry are separate records, joined by “and”; a condition that tells them apart may be missing. Equal values may be shown once. Where a name gives a salt, the structure may show the parent alone. Read-outs that look alike come from different tables or passages of the source.

Test system: ovarian cancer cells with (OVCAR8, OVCAR4) or without (OVSAHO, CAOV3) MYC-HSF1 amplification
Test: Epigenetic inhibitor drug screen, cell viability (Cell Titer Blue)
Format: cell-based
[1] = 10 uM, 48 hrs, average relative cell viability (vs 1% DMSO) of non-amplified cells (OVSAHO, CAOV3) minus that of MYC-HSF1 amplified cells (OVCAR8, OVCAR4), positive = greater response in amplified cells
[2] = 10 uM, 48 hrs, average relative cell viability (vs 1% DMSO) of non-amplified cells (OVSAHO, CAOV3) minus that of MYC-HSF1 amplified cells (OVCAR8, OVCAR4), positive = greater response in amplified cells, 10 µM

CS(=O)(=O)c1ccc(-c2nnc(/C=C/c3nnc(-c4ccc(C#N)cc4)o3)n2-c2ccccc2Cl)nc1 [G007-LK]
Non Amp - AMP (POC) 10 uM [1]: −1.13 POC

CN(C)CCCn1cc(C2=C(c3c[nH]c4ccccc34)C(=O)NC2=O)c2ccccc21 [GF 109203X]
Non Amp - AMP (POC) 10 uM: 3.766 POC

N#Cc1ccc(COc2ccc(-c3cccc4nc(NC(=O)C5CC5)nn34)cc2)cn1 [GLPG0634 analogue]
Non Amp - AMP (POC) 10 uM [1]: −7.702 POC

O=C(Nc1nc2cccc(-c3ccc(CN4CCS(=O)(=O)CC4)cc3)n2n1)C1CC1 [GLPG0634]
Non Amp - AMP (POC) 10 uM [1]: 15.53 POC

COc1cc(C(=O)N2CC[C@@H](O)[C@@H](N)C2)cc2nc(-c3cc4ccccc4n3CC3CC3)n(C)c12.Cl [GSK484 (hydrochloride)]
Non Amp - AMP (POC) 10 uM [1]: 0.3153 POC

Cc1cc(C)c(CNC(=O)c2cc(-c3ccc(N4CCN(C)CC4)nc3)cc3c2c(C)cn3C(C)C)c(=O)[nH]1 [GSK503]
Non Amp - AMP (POC) 10 uM [1]: −0.09843 POC

CCn1c(-c2nonc2N)nc2c(C#CC(C)(C)O)ncc(OC[C@H]3CCCNC3)c21 [GSK690693]
Non Amp - AMP (POC) 10 uM [1]: −7.029 POC

CC(=O)N1c2ccc(-c3ccc(C(=O)O)cc3)cc2[C@H](Nc2ccc(Cl)cc2)C[C@@H]1C [GSK1324726A]
Non Amp - AMP (POC) 10 uM [1]: 0.1295 POC

O=C(O)c1ccc(CN2CCC(CN[C@@H]3C[C@H]3c3ccccc3)CC2)cc1 [GSK2879552]
Non Amp - AMP (POC) 10 uM [2]: 13.47 POC and 12.35 POC

COc1ccccc1C(=O)Nc1cc2c(cc1N1CCCCC1)n(C)c(=O)n2C [GSK 5959]
Non Amp - AMP (POC) 10 uM [1]: 10.99 POC

O=C(O)CCNc1cc(N2CCc3ccccc3CC2)nc(-c2ccccn2)n1 [GSK J1]
Non Amp - AMP (POC) 10 uM: 1.38 POC

O=C(O)CCNc1cc(N2CCc3ccccc3CC2)nc(-c2cccnc2)n1 [GSK J2]
Non Amp - AMP (POC) 10 uM [1]: 0.5701 POC

CCOC(=O)CCNc1cc(N2CCc3ccccc3CC2)nc(-c2ccccn2)n1.Cl [GSK J4 HCl]
Non Amp - AMP (POC) 10 uM [2]: −10.21 POC
Non Amp - AMP (POC) 10 uM (10 uM, 48 hrs, average relative cell viability (vs 1% DMSO) of non-amplified cells (OVSAHO, CAOV3) minus that of MYC-HSF1 amplified cells (OVCAR8, OVCAR4), positive = greater response in amplified cells, listed as GSK-J4 (hydrochloride), 10 µM): −13.06 POC

O=C1Nc2cc(Br)ccc2/C1=C1/Nc2ccccc2/C1=N\O [GSK-3 Inhibitor IX (BIO)]
Non Amp - AMP (POC) 10 uM [1]: −1.008 POC

O=C(O)CCNc1cc(N2CCc3ccccc3CC2)nc(-c2ccccn2)n1 [GSK-J1 (sodium salt)]
Non Amp - AMP (POC) 10 uM [1]: 8.487 POC

Cl.Cl.c1ccc([C@@H]2C[C@H]2NC2CCNCC2)cc1 [GSK-LSD1 2HCl]
Non Amp - AMP (POC) 10 uM: 2.922 POC

c1ccc([C@@H]2C[C@H]2NC2CCNCC2)cc1 [GSK-LSD1 (hydrochloride)]
Non Amp - AMP (POC) 10 uM [1]: 14.88 POC

C=C(C)[C@@H](CC=C(C)C)C[C@@]12C[C@@H](CC=C(C)C)C(C)(C)[C@@](CC=C(C)C)(C(=O)C(C(=O)c3ccc(O)c(O)c3)=C1O)C2=O [Garcinol]
Non Amp - AMP (POC) 10 uM [1]: 6.401 POC

Nc1ccn([C@@H]2O[C@H](CO)[C@@H](O)C2(F)F)c(=O)n1 [Gemcitabine HCl]
Non Amp - AMP (POC) 10 uM (10 uM, 48 hrs, average relative cell viability (vs 1% DMSO) of non-amplified cells (OVSAHO, CAOV3) minus that of MYC-HSF1 amplified cells (OVCAR8, OVCAR4), positive = greater response in amplified cells, HCl, 10 µM): 8.319 POC

Nc1ccn([C@@H]2O[C@H](CO)[C@@H](O)C2(F)F)c(=O)n1 [Gemcitabine]
Non Amp - AMP (POC) 10 uM [2]: 28.61 POC

Cn1c2ccccc2c2c3c(c4c5ccccc5n(CCC#N)c4c21)CNC3=O [Go 6976]
Non Amp - AMP (POC) 10 uM [1]: 5.045 POC

COc1ccc2c(c1)c(C1=C(c3c[nH]c4ccccc34)C(=O)NC1=O)cn2CCCN(C)C [Go 6983]
Non Amp - AMP (POC) 10 uM [1]: 14.34 POC

Cl.O=S(=O)(c1cccc2cnccc12)N1CCNCC1 [HA-100 (hydrochloride)]
Non Amp - AMP (POC) 10 uM [1]: 12.45 POC

O=C1/C(=C/c2ccc(O)c(Br)c2)CCC/C1=C\c1ccc(O)c(Br)c1 [HAT Inhibitor II]
Non Amp - AMP (POC) 10 uM [1]: −25.46 POC

O=C(NO)c1ccc(CC(=O)N(CCO)c2ccccc2)cc1 [HPOB]
Non Amp - AMP (POC) 10 uM [1]: 18.14 POC

Cc1nc(Nc2cnn(C3CCNCC3)c2)nc2c1N(C)C(=O)c1cc3ccccc3cc1N2C [HTH-01-015]
Non Amp - AMP (POC) 10 uM [1]: −3.924 POC

CCS(=O)(=O)Nc1ccc2c(c1)/C(=C(/Nc1ccc(CN3CCCCC3)cc1)c1ccccc1)C(=O)N2 [Hesperadin]
Non Amp - AMP (POC) 10 uM: 39.85 POC

CC(C)c1cccc(=O)c(O)c1 [Hinokitiol]
Non Amp - AMP (POC) 10 uM [1]: −6.718 POC

COc1cc2c(cc1-c1c(C)noc1C)ncc1[nH]c(=O)n([C@H](C)c3ccccn3)c12 [I-BET151]
Non Amp - AMP (POC) 10 uM [2]: 21.72 POC
Non Amp - AMP (POC) 10 uM (10 uM, 48 hrs, average relative cell viability (vs 1% DMSO) of non-amplified cells (OVSAHO, CAOV3) minus that of MYC-HSF1 amplified cells (OVCAR8, OVCAR4), positive = greater response in amplified cells, listed as I-BET151 (GSK1210151A), 10 µM): 3.072 POC
